Results: patent publication US20250179000A1 (Sanford Burnham Prebys Medical Discovery Institute, priority 2021, published 2025)
pEC50: −log10 of the molar value.

What was measured:
Assay type in all cases: cell-based
Rat mGlu2 = molecular target: T1, Rat mGlu2 (Rattus norvegicus, UniProt P31421); assay: mGlu receptor in vitro assay, thallium flux through GIRK channels, rat mGlu2; conditions: PAM potency with EC20 glutamate
T1 construct: expressed in transfected cells; host or cells: HEK-293 co-expressing GIRK channels
T1 sequence (P31421 19-872): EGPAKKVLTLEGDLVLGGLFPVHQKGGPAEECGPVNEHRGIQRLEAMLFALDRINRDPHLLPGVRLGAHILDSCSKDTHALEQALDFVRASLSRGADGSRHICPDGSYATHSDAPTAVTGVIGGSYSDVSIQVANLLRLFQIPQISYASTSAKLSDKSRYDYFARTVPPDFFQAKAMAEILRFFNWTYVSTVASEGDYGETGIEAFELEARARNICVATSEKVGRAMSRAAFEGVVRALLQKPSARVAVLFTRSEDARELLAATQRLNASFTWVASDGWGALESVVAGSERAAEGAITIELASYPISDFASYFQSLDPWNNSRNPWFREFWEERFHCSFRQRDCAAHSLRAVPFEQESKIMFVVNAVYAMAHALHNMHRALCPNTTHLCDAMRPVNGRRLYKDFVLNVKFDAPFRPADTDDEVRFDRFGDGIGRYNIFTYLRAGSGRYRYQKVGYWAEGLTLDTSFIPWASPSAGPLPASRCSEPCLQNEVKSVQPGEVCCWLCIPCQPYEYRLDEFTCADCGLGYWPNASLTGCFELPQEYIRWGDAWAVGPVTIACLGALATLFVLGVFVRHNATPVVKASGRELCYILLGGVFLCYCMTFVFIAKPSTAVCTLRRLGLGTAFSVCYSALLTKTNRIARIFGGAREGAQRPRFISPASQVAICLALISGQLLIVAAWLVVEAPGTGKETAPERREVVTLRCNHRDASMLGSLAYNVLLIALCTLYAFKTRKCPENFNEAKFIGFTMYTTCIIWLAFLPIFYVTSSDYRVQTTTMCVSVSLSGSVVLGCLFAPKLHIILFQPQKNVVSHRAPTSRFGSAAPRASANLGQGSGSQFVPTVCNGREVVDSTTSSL
Outline: (§1)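 HEK-293 cells co-expressing rat mGlu2 or mGlu3 and GIRK, dye-loaded with FluoZin2-AM, compound added about 2.5 min before thallium buffer with EC20 glutamate; potency from the 5-15 s fluorescence slope, 10-point 4-parameter fit. Calcium assay at mGlu3 used TREx293 mGlu3 Gα15 cells induced with tetracycline 20 ng/mL for 20 h.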

Rat mGlu3 = molecular target: T2, Rat mGlu3 (Rattus norvegicus, UniProt P31422); assay: mGlu receptor in vitro assay (thallium flux through GIRK channels / calcium assay), rat mGlu3; conditions: PAM potency with EC20 glutamate
T2 construct: expressed in transfected cells; host or cells: HEK-293 co-expressing GIRK channels
T2 sequence (P31422 23-879): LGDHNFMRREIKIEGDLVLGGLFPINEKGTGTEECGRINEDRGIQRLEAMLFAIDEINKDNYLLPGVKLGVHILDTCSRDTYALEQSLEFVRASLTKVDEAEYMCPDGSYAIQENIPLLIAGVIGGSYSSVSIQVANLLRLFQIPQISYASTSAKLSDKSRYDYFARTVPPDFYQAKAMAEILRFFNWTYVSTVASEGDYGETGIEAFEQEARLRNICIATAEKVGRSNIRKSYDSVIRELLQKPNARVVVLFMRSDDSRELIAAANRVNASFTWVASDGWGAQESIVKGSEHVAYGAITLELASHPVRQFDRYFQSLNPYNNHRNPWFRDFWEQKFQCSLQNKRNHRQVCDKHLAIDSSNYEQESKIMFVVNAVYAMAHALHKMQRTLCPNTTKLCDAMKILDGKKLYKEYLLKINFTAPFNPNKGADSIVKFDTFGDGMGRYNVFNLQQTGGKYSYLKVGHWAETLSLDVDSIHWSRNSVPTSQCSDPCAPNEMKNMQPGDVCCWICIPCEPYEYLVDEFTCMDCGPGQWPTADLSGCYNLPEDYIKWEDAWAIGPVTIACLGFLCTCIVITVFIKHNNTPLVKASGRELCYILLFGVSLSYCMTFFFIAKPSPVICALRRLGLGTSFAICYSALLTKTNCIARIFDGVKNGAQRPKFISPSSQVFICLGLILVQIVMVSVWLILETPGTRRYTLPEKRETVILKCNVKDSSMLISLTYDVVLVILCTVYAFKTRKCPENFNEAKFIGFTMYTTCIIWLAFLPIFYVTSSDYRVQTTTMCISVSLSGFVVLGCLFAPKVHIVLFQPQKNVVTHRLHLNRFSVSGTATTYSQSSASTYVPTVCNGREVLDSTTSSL
Outline: as §1

Human mGlu2 = Human mGlu2 (Homo sapiens, UniProt Q14416); assay: mGlu receptor in vitro assay, human mGlu2
Human mGlu2, sequence (Q14416 19-872): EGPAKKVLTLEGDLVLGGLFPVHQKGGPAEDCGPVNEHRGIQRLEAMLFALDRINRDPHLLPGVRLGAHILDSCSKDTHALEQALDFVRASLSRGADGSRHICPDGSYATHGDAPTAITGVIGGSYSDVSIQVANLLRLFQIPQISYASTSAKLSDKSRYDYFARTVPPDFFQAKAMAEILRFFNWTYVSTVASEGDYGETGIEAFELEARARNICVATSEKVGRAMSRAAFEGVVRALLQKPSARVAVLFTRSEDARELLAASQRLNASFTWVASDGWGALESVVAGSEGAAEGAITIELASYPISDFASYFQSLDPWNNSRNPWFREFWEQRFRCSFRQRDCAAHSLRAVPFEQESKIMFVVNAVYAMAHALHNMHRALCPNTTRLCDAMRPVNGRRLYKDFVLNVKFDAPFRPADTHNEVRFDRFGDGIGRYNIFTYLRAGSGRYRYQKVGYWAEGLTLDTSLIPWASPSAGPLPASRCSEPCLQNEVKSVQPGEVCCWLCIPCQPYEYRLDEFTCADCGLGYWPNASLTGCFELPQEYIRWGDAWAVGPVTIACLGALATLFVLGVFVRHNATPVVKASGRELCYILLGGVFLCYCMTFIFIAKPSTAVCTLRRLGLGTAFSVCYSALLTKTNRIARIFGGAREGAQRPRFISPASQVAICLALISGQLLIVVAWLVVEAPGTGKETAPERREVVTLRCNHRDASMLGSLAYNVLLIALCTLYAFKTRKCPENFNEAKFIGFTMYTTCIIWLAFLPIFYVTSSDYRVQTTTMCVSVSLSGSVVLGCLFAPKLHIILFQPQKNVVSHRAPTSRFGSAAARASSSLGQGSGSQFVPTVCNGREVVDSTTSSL

Human mGlu3 = Human mGlu3 (Homo sapiens, UniProt Q14832); assay: mGlu receptor in vitro assay, human mGlu3
Human mGlu3, sequence (Q14832 23-879): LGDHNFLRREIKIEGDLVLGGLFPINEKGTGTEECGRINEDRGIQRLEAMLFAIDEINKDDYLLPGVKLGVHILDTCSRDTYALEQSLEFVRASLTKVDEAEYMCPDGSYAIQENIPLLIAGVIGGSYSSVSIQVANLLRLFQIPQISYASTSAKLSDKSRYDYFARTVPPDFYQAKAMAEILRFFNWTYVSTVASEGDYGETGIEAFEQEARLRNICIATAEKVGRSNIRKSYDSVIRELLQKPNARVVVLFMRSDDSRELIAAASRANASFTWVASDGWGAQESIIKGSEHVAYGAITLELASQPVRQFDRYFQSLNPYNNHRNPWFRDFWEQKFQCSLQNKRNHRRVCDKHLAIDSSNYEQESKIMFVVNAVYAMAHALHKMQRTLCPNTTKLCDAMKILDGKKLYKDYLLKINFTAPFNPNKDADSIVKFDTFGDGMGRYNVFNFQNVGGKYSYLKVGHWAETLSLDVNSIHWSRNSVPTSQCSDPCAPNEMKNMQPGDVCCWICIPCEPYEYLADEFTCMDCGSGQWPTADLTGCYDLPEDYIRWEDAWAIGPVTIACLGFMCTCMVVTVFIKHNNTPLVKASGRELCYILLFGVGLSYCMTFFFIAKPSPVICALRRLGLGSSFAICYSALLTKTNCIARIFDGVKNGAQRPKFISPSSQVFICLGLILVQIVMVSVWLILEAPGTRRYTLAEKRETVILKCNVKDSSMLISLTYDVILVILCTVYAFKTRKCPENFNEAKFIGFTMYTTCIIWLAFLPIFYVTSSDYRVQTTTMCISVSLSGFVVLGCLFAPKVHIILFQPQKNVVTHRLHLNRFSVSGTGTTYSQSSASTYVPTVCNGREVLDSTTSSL

SMILES	pEC50 (Rat mGlu2)	pEC50 (Rat mGlu3)	pEC50 (Human mGlu2)	pEC50 (Human mGlu3)
COC(=O)N(CCOc1cc(C(=O)O)ccc1OC)CCOc1ccc(C(=O)CC(C)(C)C)c(O)c1C [Example 24, 3-[2-(N-{2-[4-(3,3-Dimethylbutanoyl)-3-hydroxy-2-methylphenoxy]ethyl}methoxycarbonylamino)ethoxy]-4-methoxybenzoic acid]	6.75	6.19	7.09	6.34
[2H]C([2H])(CCCC([2H])([2H])Oc1ccc(C(=O)CCC)c(O)c1C)Oc1ccc(C(=O)O)c(Cl)c1 [Example 53, 4-((5-(4-Butyryl-3-hydroxy-2-methylphenoxy)pentyl-1,1,5,5-d4)oxy)-2-chlorobenzoic acid]	7.72	6.04	8.22	6.15
CCCC(=O)c1ccc(OCCCCCOc2ccc(C(=O)O)cc2OC)c(C)c1O [Example 14, 4-[5-(4-Butanoyl-3-hydroxy-2-methylphenoxy)pentyloxy]-3-methoxybenzoic acid]	7.80	5.64	8.05	< 4.52
CCCC(=O)c1ccc(OCCSCCOc2ccc(C(=O)O)c(Cl)c2)c(C)c1O [Example 42]	7.57	6.26	7.55	6.43
COc1ccc(C(=O)O)cc1OCCCCCCOc1ccc(C(=O)CC(C)(C)C)c(O)c1C [Example 19, 3-{6-[4-(3,3-Dimethylbutanoyl)-3-hydroxy-2-methylphenoxy]hexyloxy}-4-methoxybenzoic acid]	6.54	6.09	6.78	6.33
COc1ccc(C(=O)NC2CC2)cc1-c1cnc(COc2ccc(C(=O)CC(C)(C)C)c(O)c2C)cn1 [compound 127, N-Cyclopropyl-3-(5-((4-(3,3-dimethylbutanoyl)-3-hydroxy-2-methylphenoxy)methyl)pyrazin-2-yl)-4-methoxybenzamide]	6.43	6.87	6.72	6.85
COc1ccc(C(=O)O)cc1OCCCCOc1ccc(C(=O)CC(C)(C)C)c(O)c1 [compound 132, 3-(4-(4-(3,3-Dimethylbutanoyl)-3-hydroxyphenoxy)butoxy)-4-methoxybenzoic acid]	6.39	6.51	6.89	6.94
CCCC(=O)c1ccc(OCCCCCOc2ccc(C(=O)O)c(Cl)c2)c(C)c1O [Example 54, 4-[5-(4-Butanoyl-3-hydroxy-2-methylphenoxy)pentyloxy]-2-chlorobenzoic acid]	8.10	6.24	8.22	6.52
COc1c(C(=O)O)cccc1-c1cccc(COc2ccc(C(=O)CC(C)(C)C)c(O)c2C)c1 [compound 102, 3-(3-{[4-(3,3-Dimethylbutanoyl)-3-hydroxy-2-methylphenoxy]methyl}phenyl)-2-methoxybenzoic acid]	7.03	6.31	7.27	6.80
CCCC(=O)c1ccc(OCCC(C)(C)CCOc2cccc(C(=O)O)c2C)c(C)c1O [Example 30, 3-[5-(4-Butanoyl-3-hydroxy-2-methylphenoxy)-3,3-dimethylpentyloxy]-2-methylbenzoic acid]	6.58	< 5.00	7.26	< 5.00
Cc1c(OCOc2ccc(C(=O)CC(C)(C)C)c(O)c2C)cccc1C(=O)O [compound 94, 3-{[4-(3,3-Dimethylbutanoyl)-3-hydroxy-2-methylphenoxy]methoxy}-2-methylbenzoic acid]	6.36	< 4.52	7.00	< 5.00
CCCC(=O)c1ccc(OCCCCCOc2ccc(C(=O)O)c(F)c2)c(C)c1O [Example 45, 4-[5-(4-Butanoyl-3-hydroxy-2-methylphenoxy)pentyloxy]-2-fluorobenzoic acid]	7.18	5.96	7.89	6.03
CCCC(=O)c1ccc(OC/C=C/COc2ccc(C(=O)O)c(Cl)c2)c(C)c1O [Example 44, 4-[(2E)-4-(4-Butanoyl-3-hydroxy-2-methylphenoxy)but-2-enyloxy]-2-chlorobenzoic acid]	7.36	5.99	7.70	5.95
COc1ccc(C(=O)O)cc1OC/C=C/COc1ccc(C(=O)CC(C)(C)C)c(O)c1C [Example 4, (E)-3-((4-(4-(3,3-Dimethylbutanoyl)-3-hydroxy-2-methylphenoxy)but-2-en-1-yl)oxy)-4-methoxybenzoic acid]	7.17	7.33	7.25	7.21
Cc1c(OCCSCCOc2ccc(C(=O)CC(C)(C)C)c(O)c2C)cccc1C(=O)O [Example 25]	6.86	6.24	7.22	6.51
COc1ccc(C(=O)O)cc1OCCC(C)(C)CCOc1ccc(C(=O)CC(C)(C)C)c(O)c1C [Example 29, 3-{5-[4-(3,3-Dimethylbutanoyl)-3-hydroxy-2-methylphenoxy]-3,3-dimethylpentyloxy}-4-methoxybenzoic acid]	6.67	5.99	6.83	6.20
Cc1c(OCc2cnc(-c3ccc(F)c(C(=O)O)c3)cn2)ccc(C(=O)CC(C)(C)C)c1O [compound 115, 5-(5-((4-(3,3-Dimethylbutanoyl)-3-hydroxy-2-methylphenoxy)methyl)pyrazin-2-yl)-2-fluorobenzoic acid]	6.45	7.37	6.45	6.81
CCCC(=O)c1ccc(OCCCCCOc2ccc(C(=O)O)cc2Cl)c(C)c1O [Example 50, 4-[5-(4-Butanoyl-3-hydroxy-2-methylphenoxy)pentyloxy]-3-chlorobenzoic acid]	7.37	< 5.00	7.68	< 5.00
COc1ccc(C(=O)O)cc1OCCCCCOc1ccc(C(=O)CC(C)(C)C)c(O)c1C [Example 11, 3-{5-[4-(3,3-Dimethylbutanoyl)-3-hydroxy-2-methylphenoxy]pentyloxy}-4-methoxybenzoic acid]	7.46	6.50	8.15	6.90
COc1ccc(-c2cnc(COc3ccc(C(=O)CC(C)(C)C)c(O)c3C)cn2)cc1C(=O)O [compound 128, 5-(5-((4-(3,3-Dimethylbutanoyl)-3-hydroxy-2-methylphenoxy)methyl)pyrazin-2-yl)-2-methoxybenzoic acid]	6.37	6.98	6.53	6.83
COc1ccc(C(=O)O)cc1OCCCCOc1ccc(C(=O)c2ccccc2)c(O)c1C [compound 59, 3-(4-(4-Benzoyl-3-hydroxy-2-methylphenoxy)butoxy)-4-methoxybenzoic acid]	6.74	6.65	6.49	6.39
CCCC(=O)c1ccc(OCCSCCOc2cccc(C(=O)O)c2C)c(C)c1O [Example 16, 3-{2-[2-(4-Butanoyl-3-hydroxy-2-methylphenoxy)ethylthio]ethoxy}-2-methylbenzoic acid]	7.25	< 5.00	7.55	< 4.52
